Experimental data reported in patent publication US12473304B2, “Heterocyclic PAD4 inhibitors” (BRISTOL-MYERS SQUIBB COMPANY, priority 2020, dated 2025).

What follows are compounds tested against human PAD4 (hPAD4) (Homo sapiens (Human), UniProt Q9UM07) (assay: RFMS Human PAD4 Functional Assay 1). Settings: RFMS assay 1; 5 nM hPAD4, 250 μM BAEE substrate, 50 μM calcium, 37° C.
Chain of human PAD4 (hPAD4) (Q9UM07 whole entry): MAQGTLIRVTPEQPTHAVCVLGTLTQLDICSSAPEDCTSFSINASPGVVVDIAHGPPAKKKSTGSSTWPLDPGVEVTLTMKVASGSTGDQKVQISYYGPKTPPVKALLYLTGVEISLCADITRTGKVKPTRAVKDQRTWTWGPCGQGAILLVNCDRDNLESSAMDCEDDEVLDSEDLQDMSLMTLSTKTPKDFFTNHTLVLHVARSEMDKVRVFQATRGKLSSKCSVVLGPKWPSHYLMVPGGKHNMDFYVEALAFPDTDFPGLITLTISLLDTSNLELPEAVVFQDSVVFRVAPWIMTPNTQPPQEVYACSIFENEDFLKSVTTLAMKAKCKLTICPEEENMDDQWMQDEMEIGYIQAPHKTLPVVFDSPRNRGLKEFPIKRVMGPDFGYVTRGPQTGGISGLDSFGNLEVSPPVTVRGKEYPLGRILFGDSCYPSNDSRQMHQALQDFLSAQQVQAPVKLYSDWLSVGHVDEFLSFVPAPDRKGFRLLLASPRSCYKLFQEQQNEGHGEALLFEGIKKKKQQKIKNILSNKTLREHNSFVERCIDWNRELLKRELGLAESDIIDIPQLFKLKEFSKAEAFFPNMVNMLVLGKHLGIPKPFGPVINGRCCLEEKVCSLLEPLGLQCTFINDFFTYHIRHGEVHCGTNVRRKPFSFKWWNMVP
Type: biochemical
In short: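 Recombinant hPAD4 (5 nM) was preincubated with compound (top 50 μM, 0.5% DMSO) for 30 min at 37 °C, then reacted with 250 μM BAEE for 90 min at 37 °C in pH 7.5 HEPES buffer with 50 μM calcium and 5 μM TPEN. Product was derivatized with phenyl glyoxal and quantified by RapidFire MS.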
`COc1cc(C(=O)N2CCC[C@@H](N)C2)cn2nc(-c3cc4cccc(OCCn5cncn5)c4n3CC3CC3)c(C)c12` [Example 555, (R)-(2-(7-(2-(1H-1,2,4-Triazol-1-yl)ethoxy)-1-(cyclopropylmethyl)-1H-indol-2-yl)-4-methoxy-3-methylpyrazolo[1,5-a]pyridin-6-yl)(3-aminopiperidin-1-yl)methanone] gave an IC50 of 30 nM.
Work on `COc1cc(C(=O)N2C[C@H](N)C[C@@H](F)C2)cn2nc(-c3cc4cccc(OCCn5cncn5)c4n3CC3CC3)c(C)c12` [Example 556, (2-(7-(2-(1H-1,2,4-Triazol-1-yl)ethoxy)-1-(cyclopropylmethyl)-1H-indol-2-yl)-4-methoxy-3-methylpyrazolo[1,5-a]pyridin-6-yl)((3R,5R)-3-amino-5-fluoropiperidin-1-yl)methanone] yielded an IC50 of 20 nM.
With `COc1cc(C(=O)N2C[C@H](N)C[C@@H](F)C2)cn2nc(-c3cc4cccc(OCCn5cc(N)cn5)c4n3CC3CC3)c(C)c12` [Example 557, (2-(7-(2-(4-Amino-1H-pyrazol-1-yl)ethoxy)-1-(cyclopropylmethyl)-1H-indol-2-yl)-4-methoxy-3-methylpyrazolo[1,5-a]pyridin-6-yl)((3R,5R)-3-amino-5-fluoropiperidin-1-yl)methanone] the IC50 was 10 nM.
For `COc1cc(C(=O)N2CCC[C@@H](N)C2)cn2nc(-c3cc4cccc(OCCn5cc(N)cn5)c4n3CC3CC3)c(C)c12` [Example 558, (R)-(2-(7-(2-(4-Amino-1H-pyrazol-1-yl)ethoxy)-1-(cyclopropylmethyl)-1H-indol-2-yl)-4-methoxy-3-methylpyrazolo[1,5-a]pyridin-6-yl)(3-aminopiperidin-1-yl)methanone], the IC50 was 100 nM.
`COc1cc(C(=O)N2CCC[C@@H](N)C2)cn2nc(-c3cc4cccc(OC[C@@H]5CCC(=O)N5)c4n3CC3CC3)c(C)c12` [Example 559, (S)-5-(((2-(6-((R)-3-Aminopiperidine-1-carbonyl)-4-methoxy-3-methylpyrazolo[1,5-a]pyridin-2-yl)-1-(cyclopropylmethyl)-1H-indol-7-yl)oxy)methyl)pyrrolidin-2-one] was tested, and the IC50 was 80 nM.
Work on `COc1cc(C(=O)N2C[C@H](N)C[C@@H](F)C2)cn2nc(-c3cc4cccc(OC[C@@H]5CCC(=O)N5)c4n3CC3CC3)c(C)c12` [Example 560, (S)-5-(((2-(6-((3R,5R)-3-Amino-5-fluoropiperidine-1-carbonyl)-4-methoxy-3-methylpyrazolo[1,5-a]pyridin-2-yl)-1-(cyclopropylmethyl)-1H-indol-7-yl)oxy)methyl)pyrrolidin-2-one] yielded an IC50 of 160 nM.
`COc1cc(C(=O)N2CCC[C@@H](N)C2)cn2nc(-c3cc4cccc(OC[C@H]5CCC(=O)N5)c4n3CC3CC3)c(C)c12` [Example 561, (R)-5-(((2-(6-((R)-3-Aminopiperidine-1-carbonyl)-4-methoxy-3-methylpyrazolo[1,5-a]pyridin-2-yl)-1-(cyclopropylmethyl)-1H-indol-7-yl)oxy)methyl)pyrrolidin-2-one] gave an IC50 of 640 nM.
`Cc1c(-c2cc3cccc(OC[C@@H]4CCC(=O)N4)c3n2CC2CC2)nn2cc(C(=O)N3C[C@H](N)C[C@@H](F)C3)cc(F)c12` [Example 568, (S)-5-(((2-(6-((3R,5R)-3-Amino-5-fluoropiperidine-1-carbonyl)-4-fluoro-3-methylpyrazolo[1,5-a]pyridin-2-yl)-1-(cyclopropylmethyl)-1H-indol-7-yl)oxy)methyl)pyrrolidin-2-one] was tested, and the IC50 was 60 nM.
With `Cc1c(-c2cc3cccc(OC[C@@H]4CCC(=O)N4)c3n2CC2CC2)nn2cc(C(=O)N3CCC[C@@H](N)C3)cc(F)c12` [Example 569, (S)-5-(((2-(6-((R)-3-Aminopiperidine-1-carbonyl)-4-fluoro-3-methylpyrazolo[1,5-a]pyridin-2-yl)-1-(cyclopropylmethyl)-1H-indol-7-yl)oxy)methyl)pyrrolidin-2-one] the IC50 was 20 nM.
For `Cc1c(-c2cc3cccc(OC[C@H]4CCC(=O)N4)c3n2CC2CC2)nn2cc(C(=O)N3CCC[C@@H](N)C3)cc(F)c12` [Example 570, (R)-5-(((2-(6-((R)-3-Aminopiperidine-1-carbonyl)-4-fluoro-3-methylpyrazolo[1,5-a]pyridin-2-yl)-1-(cyclopropylmethyl)-1H-indol-7-yl)oxy)methyl)pyrrolidin-2-one], the IC50 was 180 nM.
With `Cc1c(-c2cc3cccc(OCCn4ccnc4)c3n2CC2CC2)nn2cc(C(=O)N3C[C@H](N)C[C@@H](F)C3)ccc12` [Example 574, (2-(7-(2-(1H-Imidazol-1-yl)ethoxy)-1-(cyclopropylmethyl)-1H-indol-2-yl)-3-methylpyrazolo[1,5-a]pyridin-6-yl)((3R,5R)-3-amino-5-fluoropiperidin-1-yl)methanone] the IC50 was 20 nM.
Compound `Cc1c(-c2cc3cccc(OCCn4ccnc4)c3n2CC2CC2)nn2cc(C(=O)N3CCC[C@@H](N)C3)ccc12` [Example 575, (R)-(2-(7-(2-(1H-lmidazol-1-yl)ethoxy)-1-(cyclopropylmethyl)-1H-indol-2-yl)-3-methylpyrazolo[1,5-a]pyridin-6-yl)(3-aminopiperidin-1-yl)methanone] has an IC50 of 60 nM.
Compound `Cc1c(-c2cc3cccc(OCCn4cncn4)c3n2CC2CC2)nn2cc(C(=O)N3CCC[C@@H](N)C3)ccc12` [Example 580, (R)-(2-(7-(2-(1H-1,2,4-Triazol-1-yl)ethoxy)-1-(cyclopropylmethyl)-1H-indol-2-yl)-3-methylpyrazolo[1,5-a]pyridin-6-yl)(3-aminopiperidin-1-yl)methanone] has an IC50 of 60 nM.
In the case of `Cc1c(-c2cc3cccc(OCCn4cncn4)c3n2CC2CC2)nn2cc(C(=O)N3C[C@H](N)C[C@@H](F)C3)ccc12` [Example 581, (2-(7-(2-(1H-1,2,4-Triazol-1-yl)ethoxy)-1-(cyclopropylmethyl)-1H-indol-2-yl)-3-methylpyrazolo[1,5-a]pyridin-6-yl)((3R, 5R)-3-amino-5-fluoropiperidin-1-yl)methanone], the IC50 is reported as 30 nM.
With `Cc1c(-c2cc3cccc(OCCn4cc(N)cn4)c3n2CC2CC2)nn2cc(C(=O)N3CCC[C@@H](N)C3)ccc12` [Example 582, (R)-(2-(7-(2-(4-Amino-1H-pyrazol-1-yl)ethoxy)-1-(cyclopropylmethyl)-1H-indol-2-yl)-3-methylpyrazolo[1,5-a]pyridin-6-yl)(3-aminopiperidin-1-yl)methanone] the IC50 was 300 nM.
With `Cc1c(-c2cc3cccc(OCCn4cc(N)cn4)c3n2CC2CC2)nn2cc(C(=O)N3C[C@H](N)C[C@@H](F)C3)ccc12` [Example 583, (2-(7-(2-(4-Amino-1H-pyrazol-1-yl)ethoxy)-1-(cyclopropylmethyl)-1H-indol-2-yl)-3-methylpyrazolo[1,5-a]pyridin-6-yl)((3R,5R)-3-amino-5-fluoropiperidin-1-yl)methanone] the IC50 was 1610 nM.
With `Cc1c(-c2cc3cccc(OC[C@@H]4CCC(=O)N4)c3n2CC2CC2)nn2cc(C(=O)N3CCC[C@@H](N)C3)ccc12` [Example 584, (S)-5-(((2-(6-((R)-3-Aminopiperidine-1-carbonyl)-3-methylpyrazolo[1,5-a]pyridin-2-yl)-1-(cyclopropylmethyl)-1H-indol-7-yl)oxy)methyl)pyrrolidin-2-one] the IC50 was 50 nM.
For `Cc1c(-c2cc3cccc(OC[C@@H]4CCC(=O)N4)c3n2CC2CC2)nn2cc(C(=O)N3C[C@H](N)C[C@@H](F)C3)ccc12` [Example 585, (S)-5-(((2-(6-((3R,5R)-3-Amino-5-fluoropiperidine-1-carbonyl)-3-methylpyrazolo[1,5-a]pyridin-2-yl)-1-(cyclopropylmethyl)-1H-indol-7-yl)oxy)methyl)pyrrolidin-2-one], the IC50 was 70 nM.
`Cc1c(-c2cc3cccc(OC[C@H]4CCC(=O)N4)c3n2CC2CC2)nn2cc(C(=O)N3CCC[C@@H](N)C3)ccc12` [Example 586, (R)-5-(((2-(6-((R)-3-Aminopiperidine-1-carbonyl)-3-methylpyrazolo[1,5-a]pyridin-2-yl)-1-(cyclopropylmethyl)-1H-indol-7-yl)oxy)methyl)pyrrolidin-2-one] was tested, and the IC50 was 150 nM.
In the case of `Cc1c(-c2cc3cccc(OC[C@H]4CCC(=O)N4)c3n2CC2CC2)nn2cc(C(=O)N3C[C@H](N)C[C@@H](F)C3)ccc12` [Example 587, (R)-5-(((2-(6-((3R,5R)-3-Amino-5-fluoropiperidine-1-carbonyl)-3-methylpyrazolo[1,5-a]pyridin-2-yl)-1-(cyclopropylmethyl)-1H-indol-7-yl)oxy)methyl)pyrrolidin-2-one], the IC50 is reported as 1120 nM.
With `COc1cc(C(=O)N2C[C@H](N)C[C@@H](F)C2)cn2nc(-c3cc4ccnc(OCCn5cncn5)c4n3CC3CC3)c(C)c12` [Example 592, (2-(7-(2-(1H-1,2,4-Triazol-1-yl)ethoxy)-1-(cyclopropylmethyl)-1H-pyrrolo[2,3-c]pyridin-2-yl)-4-methoxy-3-methylpyrazolo[1,5-a]pyridin-6-yl)((3R,5R)-3-amino-5-fluoropiperidin-1-yl)methanone] the IC50 was 30 nM.
With `COc1cc(C(=O)N2CCC[C@@H](N)C2)cn2nc(-c3cc4ccnc(OCCn5cncn5)c4n3CC3CC3)c(C)c12` [Example 593, (R)-(2-(7-(2-(1H-1,2,4-Triazol-1-yl)ethoxy)-1-(cyclopropylmethyl)-1H-pyrrolo[2,3-c]pyridin-2-yl)-4-methoxy-3-methylpyrazolo[1,5-a]pyridin-6-yl)(3-aminopiperidin-1-yl)methanone] the IC50 was 110 nM.
With `COc1cc(C(=O)N2C[C@H](N)C[C@@H](F)C2)cn2nc(-c3cc4ccnc(OCCn5ccnc5C)c4n3CC3CC3)c(C)c12` [Example 594, ((3R,5R)-3-Amino-5-fluoropiperidin-1-yl)(2-(1-(cyclopropylmethyl)-7-(2-(2-methyl-1H-imidazol-1-yl)ethoxy)-1H-pyrrolo[2,3-c]pyridin-2-yl)-4-methoxy-3-methylpyrazolo[1,5-a]pyridin-6-yl)methanone] the IC50 was 390 nM.
For `COc1cc(C(=O)N2CCC[C@@H](N)C2)cn2nc(-c3cc4ccnc(OCCn5ccnc5C)c4n3CC3CC3)c(C)c12` [Example 595, (R)-(3-Aminopiperidin-1-yl)(2-(1-(cyclopropylmethyl)-7-(2-(2-methyl-1H-imidazol-1-yl)ethoxy)-1H-pyrrolo[2,3-c]pyridin-2-yl)-4-methoxy-3-methylpyrazolo[1,5-a]pyridin-6-yl)methanone], the IC50 was 1280 nM.
